Measurements published in patent US10760110B2, “Antibiotic testing and screening system” (priority 2017, dated 2020).
Where two headings read alike, the source gives them in different places.

Tested on: K. pneumoniae NVT1001 strains with ESBL or AmpC β-lactamase plasmids
Assay: Etest MIC of β-lactams, OmpK35/36 loss, ΔramR and/or extended-spectrum β-lactamase and AmpC β-lactamase (Table 8)
Format: cell-based, Klebsiella pneumoniae
Conditions: Klebsiella pneumoniae
Method: DNA fragments of the resistance genes along with their flanking regions were amplified from clinical plasmids via PCR with specific primer pairs. The resulting PCR fragments were digested and then cloned into the plasmid pACYC177 or pACYC184. The resulting plasmids were then transformed into K. pneumoniae strain NVT1001 via electroporation. The recombinant bacteria were plated onto LB agar plates containing kanamycin (50 mg/L) or chloramphenicol (50 mg/L), and the presence of the cloned gene was confirmed via PCR and DNA sequencing.
The MICs of antibiotics were determined using the Etest (Biodisk AB, Sweden) according to the manufacturer's instructions. The MICs from the Etest, which fall between standard two-fold dilutions, were rounded up to the next highest two-fold value. The MICs of ceftazidime and cefotaxime against K. pneumoniae NVT1001 harbouring the pACYC177 plasmid with blaOXA-48 were further determined using a broth microdilution test according to the recommendations of the CLSI,^25 and the results were interpreted according to the breakpoints established by the CLSI in 2017.^25 Meanwhile, due to the lack of CLSI breakpoints in 2016 and 2017, the results for cephalothin were interpreted according to the breakpoints established by the CLSI in 2015,^26 and the results for moxifloxacin were interpreted according to the breakpoints established by the EUCAST in 2017.^27

[1] = CMY-2 on pACYC177, WT (NVT1001), read-out: MIC
[2] = CMY-2 on pACYC177, Δ35 (ΔompK35 mutant)
[3] = CMY-2 on pACYC177, Δ35/36 (ΔompK35/36 mutant)
[4] = CMY-2 on pACYC177, Δ36 (ΔompK36 mutant)
[5] = CMY-2 on pACYC177, ΔramR mutant
[6] = CMY-2 on pACYC177, ΔramRΔ35 (ΔramRΔompK35 mutant)
[7] = CMY-2 on pACYC177, ΔramRΔ35/36 (ΔramRΔompK35/36 mutant)
[8] = CMY-2 on pACYC177, ΔramRΔ36 (ΔramRΔompK36 mutant)
[9] = CTX-M-14 on pACYC177, WT (NVT1001), read-out: MIC
[10] = CTX-M-14 on pACYC177, Δ35 (ΔompK35 mutant)
[11] = CTX-M-14 on pACYC177, Δ35/36 (ΔompK35/36 mutant)
[12] = CTX-M-14 on pACYC177, Δ36 (ΔompK36 mutant)
[13] = CTX-M-14 on pACYC177, ΔramR mutant
[14] = CTX-M-14 on pACYC177, ΔramRΔ35 (ΔramRΔompK35 mutant)
[15] = CTX-M-14 on pACYC177, ΔramRΔ35/36 (ΔramRΔompK35/36 mutant)
[16] = CTX-M-14 on pACYC177, ΔramRΔ36 (ΔramRΔompK36 mutant)
[17] = CTX-M-15 on pACYC177, WT (NVT1001), read-out: MIC
[18] = CTX-M-15 on pACYC177, Δ35 (ΔompK35 mutant)
[19] = CTX-M-15 on pACYC177, Δ35/36 (ΔompK35/36 mutant)
[20] = CTX-M-15 on pACYC177, Δ36 (ΔompK36 mutant)
[21] = CTX-M-15 on pACYC177, ΔramR mutant
[22] = CTX-M-15 on pACYC177, ΔramRΔ35 (ΔramRΔompK35 mutant)
[23] = CTX-M-15 on pACYC177, ΔramRΔ35/36 (ΔramRΔompK35/36 mutant)
[24] = CTX-M-15 on pACYC177, ΔramRΔ36 (ΔramRΔompK36 mutant)
[25] = DHA-1-AmpR on pACYC177, WT (NVT1001), read-out: MIC
[26] = DHA-1-AmpR on pACYC177, Δ35 (ΔompK35 mutant)
[27] = DHA-1-AmpR on pACYC177, Δ35/36 (ΔompK35/36 mutant)
[28] = DHA-1-AmpR on pACYC177, Δ36 (ΔompK36 mutant)
[29] = DHA-1-AmpR on pACYC177, ΔramR mutant
[30] = DHA-1-AmpR on pACYC177, ΔramRΔ35 (ΔramRΔompK35 mutant)
[31] = DHA-1-AmpR on pACYC177, ΔramRΔ35/36 (ΔramRΔompK35/36 mutant)
[32] = DHA-1-AmpR on pACYC177, ΔramRΔ36 (ΔramRΔompK36 mutant)
[33] = SHV-12 on pACYC177, WT (NVT1001), read-out: MIC
[34] = SHV-12 on pACYC177, Δ35 (ΔompK35 mutant)
[35] = SHV-12 on pACYC177, Δ35/36 (ΔompK35/36 mutant)
[36] = SHV-12 on pACYC177, Δ36 (ΔompK36 mutant)
[37] = SHV-12 on pACYC177, ΔramR mutant
[38] = SHV-12 on pACYC177, ΔramRΔ35 (ΔramRΔompK35 mutant)
[39] = SHV-12 on pACYC177, ΔramRΔ35/36 (ΔramRΔompK35/36 mutant)
[40] = SHV-12 on pACYC177, ΔramRΔ36 (ΔramRΔompK36 mutant)
[41] = no supplemental plasmid, WT (NVT1001), read-out: MIC
[42] = no supplemental plasmid, Δ35 (ΔompK35 mutant)
[43] = no supplemental plasmid, Δ35/36 (ΔompK35/36 mutant)
[44] = no supplemental plasmid, Δ36 (ΔompK36 mutant)
[45] = no supplemental plasmid, ΔramR mutant
[46] = no supplemental plasmid, ΔramRΔ35 (ΔramRΔompK35 mutant)
[47] = no supplemental plasmid, ΔramRΔ35/36 (ΔramRΔompK35/36 mutant)
[48] = no supplemental plasmid, ΔramRΔ36 (ΔramRΔompK36 mutant)

With `CO/N=C(\C(=O)N[C@@H]1C(=O)N2C(C(=O)O)=C(COC(N)=O)CS[C@H]12)c1ccco1` [Cefuroxime] the MIC [1] was 256 µg/mL, the MIC [2] was 256 µg/mL and the MIC [3] was > 256 µg/mL. For the same compound, the MIC [4] was > 256 µg/mL, the MIC [5] was > 256 µg/mL and the MIC [6] was > 256 µg/mL. For the same compound, the MIC [7] was > 256 µg/mL, the MIC [8] was > 256 µg/mL and the MIC [9] was > 256 µg/mL. The MIC [10] was > 256 µg/mL, the MIC [11] was > 256 µg/mL and the MIC [12] was > 256 µg/mL. The MIC [13] was > 256 µg/mL, the MIC [14] was > 256 µg/mL and the MIC [15] was > 256 µg/mL. The MIC [16] was > 256 µg/mL, the MIC [17] was > 256 µg/mL and the MIC [18] was > 256 µg/mL. The MIC [19] was > 256 µg/mL, the MIC [20] was > 256 µg/mL and the MIC [21] was > 256 µg/mL. The MIC [22] was > 256 µg/mL, the MIC [23] was > 256 µg/mL and the MIC [24] was > 256 µg/mL. The MIC [25] was > 256 µg/mL, the MIC [26] was > 256 µg/mL and the MIC [27] was > 256 µg/mL. The MIC [28] was > 256 µg/mL, the MIC [29] was > 256 µg/mL and the MIC [30] was > 256 µg/mL. The MIC [31] was > 256 µg/mL, the MIC [32] was > 256 µg/mL and the MIC [33] was 64 µg/mL. For the same compound, the MIC [34] was 64 µg/mL, the MIC [35] was > 256 µg/mL and the MIC [36] was 128 µg/mL. For the same compound, the MIC [37] was 256 µg/mL, the MIC [38] was 128 µg/mL and the MIC [39] was > 256 µg/mL. For the same compound, the MIC [40] was > 256 µg/mL, the MIC [41] was 4 µg/mL and the MIC [42] was 8 µg/mL. The MIC [43] was 32 µg/mL, the MIC [44] was 16 µg/mL and the MIC [45] was 32 µg/mL. The MIC [46] was 64 µg/mL, the MIC [47] was 128 µg/mL and the MIC [48] was > 256 µg/mL.

In the case of `CC(=O)OCC1=C(C(=O)O)N2C(=O)[C@@H](NC(=O)Cc3cccs3)[C@H]2SC1` [Cephalothin], the MIC [1] is reported as > 256 µg/mL, the MIC [2] is reported as > 256 µg/mL and the MIC [3] is reported as > 256 µg/mL. For the same compound, the MIC [4] was > 256 µg/mL, the MIC [5] was > 256 µg/mL and the MIC [6] was > 256 µg/mL. For the same compound, the MIC [7] was > 256 µg/mL, the MIC [8] was > 256 µg/mL and the MIC [9] was > 256 µg/mL. For the same compound, the MIC [10] was > 256 µg/mL, the MIC [11] was > 256 µg/mL and the MIC [12] was > 256 µg/mL. The MIC [13] was > 256 µg/mL, the MIC [14] was > 256 µg/mL and the MIC [15] was > 256 µg/mL. The MIC [16] was > 256 µg/mL, the MIC [17] was > 256 µg/mL and the MIC [18] was > 256 µg/mL. For the same compound, the MIC [19] was > 256 µg/mL, the MIC [20] was > 256 µg/mL and the MIC [21] was > 256 µg/mL. The MIC [22] was > 256 µg/mL, the MIC [23] was > 256 µg/mL and the MIC [24] was > 256 µg/mL. For the same compound, the MIC [25] was > 256 µg/mL, the MIC [26] was > 256 µg/mL and the MIC [27] was > 256 µg/mL. For the same compound, the MIC [28] was > 256 µg/mL, the MIC [29] was > 256 µg/mL and the MIC [30] was > 256 µg/mL. For the same compound, the MIC [31] was > 256 µg/mL, the MIC [32] was > 256 µg/mL and the MIC [33] was > 256 µg/mL. For the same compound, the MIC [34] was > 256 µg/mL, the MIC [35] was > 256 µg/mL and the MIC [36] was > 256 µg/mL. For the same compound, the MIC [37] was > 256 µg/mL, the MIC [38] was > 256 µg/mL and the MIC [39] was > 256 µg/mL. For the same compound, the MIC [40] was > 256 µg/mL, the MIC [41] was 8 µg/mL and the MIC [42] was 8 µg/mL. It also gave an MIC [43] of 256 µg/mL, an MIC [44] of 16 µg/mL and an MIC [45] of 64 µg/mL. The MIC [46] was 64 µg/mL, the MIC [47] was > 256 µg/mL and the MIC [48] was > 256 µg/mL.

With `CC(C)(O/N=C(\C(=O)N[C@@H]1C(=O)N2C(C(=O)[O-])=C(C[n+]3ccccc3)CS[C@H]12)c1csc(N)n1)C(=O)O` [Ceftazidime] the MIC [1] was > 256 µg/mL, the MIC [2] was > 256 µg/mL and the MIC [3] was > 256 µg/mL. For the same compound, the MIC [4] was > 256 µg/mL, the MIC [5] was > 256 µg/mL and the MIC [6] was > 256 µg/mL. The MIC [7] was > 256 µg/mL, the MIC [8] was > 256 µg/mL and the MIC [9] was 1 µg/mL. The MIC [10] was 4 µg/mL, the MIC [11] was 8 µg/mL and the MIC [12] was 2 µg/mL. The MIC [13] was 8 µg/mL, the MIC [14] was 8 µg/mL and the MIC [15] was 16 µg/mL. For the same compound, the MIC [16] was 8 µg/mL, the MIC [17] was 64 µg/mL and the MIC [18] was > 256 µg/mL. For the same compound, the MIC [19] was > 256 µg/mL, the MIC [20] was 64 µg/mL and the MIC [21] was 256 µg/mL. The MIC [22] was > 256 µg/mL, the MIC [23] was > 256 µg/mL and the MIC [24] was > 256 µg/mL. For the same compound, the MIC [25] was 16 µg/mL, the MIC [26] was 128 µg/mL and the MIC [27] was > 256 µg/mL. The MIC [28] was 32 µg/mL, the MIC [29] was 64 µg/mL and the MIC [30] was 64 µg/mL. For the same compound, the MIC [31] was 128 µg/mL, the MIC [32] was 64 µg/mL and the MIC [33] was 64 µg/mL. For the same compound, the MIC [34] was > 256 µg/mL, the MIC [35] was > 256 µg/mL and the MIC [36] was 128 µg/mL. For the same compound, the MIC [37] was > 256 µg/mL, the MIC [38] was > 256 µg/mL and the MIC [39] was > 256 µg/mL. The MIC [40] was > 256 µg/mL, the MIC [41] was 0.25 µg/mL and the MIC [42] was 0.5 µg/mL. The MIC [43] was 1 µg/mL, the MIC [44] was 0.5 µg/mL and the MIC [45] was 2 µg/mL. It also gave an MIC [46] of 2 µg/mL, an MIC [47] of 2 µg/mL and an MIC [48] of 2 µg/mL.
